# Where two headings read alike, the source gives them in different places.
# Assays:
# Type in all cases: cell-based
# [1] = test system: HCV 4a Rluc cells (NS5A chimeric genotype 1b Con1 replicon with genotype 4a NS5A gene); assay: microbe, parasite or virus in culture; details: Hepatitis C virus, read-out: 4a
# Procedure, shortened: (§1)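 Replicon cells stably carrying the listed RLuc-encoding dicistronic replicons were seeded and treated with DMSO serial dilutions of compound (10 mM stocks) diluted into culture medium. After 72 h, cells were lysed and Renilla luciferase activity measured. EC50 was derived by non-linear regression.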
# [2] = test system: HCV 1a RLuc cells (dicistronic genotype 1a H77 replicon, RLuc reporter); assay: microbe, parasite or virus in culture; details: Hepatitis C virus, read-out: 1a
# Procedure, shortened: as §1
# [3] = test system: HCV 2a JFH-1 Rluc cells (dicistronic genotype 2a JFH-1 replicon, RLuc reporter); assay: microbe, parasite or virus in culture; details: Hepatitis C virus, read-out: 2a JFH
# Procedure, shortened: as §1
# [4] = test system: HCV 1b RLuc cells (dicistronic genotype 1b Con1 replicon, RLuc reporter); assay: microbe, parasite or virus in culture; details: Hepatitis C virus, read-out: 1b (nM)
# Procedure, shortened: as §1
# [5] = test system: HCV 2b Rluc cells (NS5A chimeric genotype 2a JFH-1 replicon with genotype 2b MD2b-1 NS5A gene, M31 present); assay: microbe, parasite or virus in culture; details: Hepatitis C virus, read-out: 2b
# Procedure, shortened: as §1
# [6] = test system: HCV 3a RLuc cells (NS5A chimeric genotype 1b Con1 replicon with consensus genotype 3a NS5A gene); assay: microbe, parasite or virus in culture; details: Hepatitis C virus
# Procedure, shortened: as §1
# [7] = test system: HCV 2a Rluc cells (NS5A chimeric genotype 2a JFH-1 replicon with genotype 2a J6 strain NS5A gene, M31 present); assay: HCV replicon reporter assay, genotype 2a J6 (M31 present); details: Hepatitis C virus, read-out: 2a J6
# Procedure, shortened: as §1
# [8] = read-out: 3a, genotype 3a replicon
# [9] = genotype 2a JFH-1 RLuc replicon
# [10] = read-out: 3a, genotype 3a NS5A chimeric replicon
# [11] = 72 h, Table 1, genotype 1a H77 replicon, 72 hours
# [12] = 72 h, Table 1, genotype 2a JFH-1 replicon, 72 hours
# [13] = read-out: 3a, Table 1, genotype 3a NS5A chimeric replicon
SMILES,EC50 [1],EC50 ([2]; genotype 1a replicon),EC50 ([3]; genotype 2a JFH-1 replicon),EC50 [4],EC50 [5],"EC50 [6, 8]",EC50 [7],EC50 ([2]; genotype 1a H77 RLuc replicon),"EC50 [3, 9]","EC50 [6, 10]","EC50 [2, 11]","EC50 [3, 12]",EC50 ([4]; 72 h),"EC50 [6, 13]"
CC(C)[C@@H](C(=O)N[C@@H](C(=O)N1CCC[C@H]1c1ncc(-c2cc3c4c(c2)OCc2cc(-c5cnc([C@@H]6CCCN6C(=O)[C@H](NC(=O)[C@H](C(C)C)N(C)C)c6ccccc6)[nH]5)cc(c2-4)OC3)[nH]1)c1ccccc1)N(C)C [Example 484],0.001 to 0.99 nM,> 44 nM,0.001 to 0.999 nM,0.953 nM,> 44 nM,0.001 to 0.99 nM,> 44 nM,,,,,,,
COC[C@H]1C[C@@H](c2ncc(-c3ccc(-c4ccc(-c5cnc([C@@H]6C[C@H](SC)CN6C(=O)[C@@H](NC(=O)OC)C(C)C)[nH]5)cc4)cc3)[nH]2)N(C(=O)[C@H](NC(=O)C2CC2)c2ccccc2)C1 [Example 570],0.001 to 0.99 nM,,,0.033 nM,0.001 to 0.999 nM,,0.001 to 0.999 nM,0.001 to 0.999 nM,0.001 to 0.999 nM,0.001 to 0.99 nM,,,,
COC[C@H]1C[C@@H](c2nc3ccc4cc(-c5ccc(-c6cnc([C@@H]7CCCN7C(=O)[C@@H](NC(=O)OC)C(C)C)[nH]6)cc5)ccc4c3[nH]2)N(C(=O)[C@@H](NC(=O)OC)C(C)C)C1 [Example 417],0.001 to 0.99 nM,0.001 to 0.999 nM,0.001 to 0.999 nM,0.024 nM,1 to 44 nM,0.001 to 0.99 nM,1 to 44 nM,,,,,,,
COC[C@H]1C[C@@H](c2ncc(-c3ccc(-c4ccc5c(ccc6nc([C@@H]7CCCN7C(=O)[C@H](NC(=O)OC)c7ccccc7)[nH]c65)c4)cc3)[nH]2)N(C(=O)[C@@H](NC(=O)OC)C(C)C)C1 [Example 442],0.001 to 0.99 nM,0.001 to 0.999 nM,0.001 to 0.999 nM,0.029 nM,0.001 to 0.999 nM,0.001 to 0.99 nM,0.001 to 0.999 nM,,,,,,,
COC(=O)N[C@H](C(=O)N1CCC[C@H]1c1ncc(-c2ccc3c4c(ccc3c2)-c2ccc(-c3cnc([C@@H]5CCCN5C(=O)[C@@H](NC(=O)OC)C5CCOCC5)[nH]3)cc2CO4)[nH]1)C(C)C [Example 8],0.001 to 0.99 nM,,,,> 44 nM,,> 44 nM,,,,0.001 to 0.999 nM,0.001 to 0.999 nM,0.006 nM,1 to 4.99 nM
COC(=O)N[C@H](C(=O)N1CCC[C@H]1c1nc2ccc3c(F)c(-c4ccc5c(ccc6nc([C@@H]7CCCN7C(=O)[C@@H](NC(=O)OC)C(C)C)[nH]c65)c4F)ccc3c2[nH]1)C(C)C [Example 457],0.001 to 0.99 nM,0.001 to 0.999 nM,0.001 to 0.999 nM,0.009 nM,> 44 nM,0.001 to 0.99 nM,> 44 nM,,,,,,,
O=C(N[C@@H](C(=O)N1CCC[C@H]1c1ncc(-c2cc3c4c(c2)OCc2cc(-c5cnc([C@@H]6CCCN6C(=O)[C@H](NC(=O)C6CC6)c6ccccc6)[nH]5)cc(c2-4)OC3)[nH]1)c1ccccc1)C1CC1 [Example 443],0.001 to 0.99 nM,0.001 to 0.999 nM,0.001 to 0.999 nM,0.167 nM,0.001 to 0.999 nM,0.001 to 0.99 nM,0.001 to 0.999 nM,,,,,,,
COC(=O)N[C@H](C(=O)N1CCC[C@H]1c1ncc(-c2ccc3c(c2)COc2cc4c(cc2-3)CCc2nc([C@@H]3CCCN3C(=O)[C@H](NC(=O)C3CC3)c3ccccc3)[nH]c2-4)[nH]1)C(C)C [Example 503],0.001 to 0.99 nM,,,0.041 nM,0.001 to 0.999 nM,,0.001 to 0.999 nM,0.001 to 0.999 nM,0.001 to 0.999 nM,0.001 to 0.99 nM,,,,
CNC(=O)N[C@@H](C(=O)N1CCC[C@H]1c1ncc(-c2cc3c4c(c2)OCc2cc(-c5cnc([C@@H]6CCCN6C(=O)[C@H](NC(=O)NC)c6ccccc6)[nH]5)cc(c2-4)OC3)[nH]1)c1ccccc1 [Example 447],0.001 to 0.99 nM,1 to 44 nM,0.001 to 0.999 nM,2.05 nM,0.001 to 0.999 nM,0.001 to 0.99 nM,0.001 to 0.999 nM,,,,,,,
COC(=O)N[C@H](C(=O)N1CC2(C[C@H]1c1nc3ccc4cc(-c5ccc6c(c5)CCc5nc(C7CCCN7C(=O)[C@H](NC(=O)OC)c7ccccc7)[nH]c5-6)ccc4c3[nH]1)OCCO2)C(C)C (some centres unmarked) [Example 365],0.001 to 0.99 nM,0.001 to 0.999 nM,0.001 to 0.999 nM,0.11 nM,0.001 to 0.999 nM,0.001 to 0.99 nM,0.001 to 0.999 nM,,,,,,,
COC[C@H]1C[C@@H](c2nc3ccc4cc(-c5ccc6c(ccc7nc([C@@H]8CCCN8C(=O)[C@@H](NC(=O)OC)C(C)C)[nH]c76)c5)ccc4c3[nH]2)N(C(=O)[C@H](NC(=O)C2CC2)c2ccccc2)C1 [Example 508],0.001 to 0.99 nM,,,0.026 nM,0.001 to 0.999 nM,,0.001 to 0.999 nM,0.001 to 0.999 nM,0.001 to 0.999 nM,0.001 to 0.99 nM,,,,
COC(=O)N[C@@H](C(=O)N1[C@@H]2C[C@@H]2C[C@H]1c1ncc(-c2cc3c4c(c2)OCc2cc(-c5cnc([C@@H]6C[C@H]7C[C@H]7N6C(=O)[C@H](NC(=O)OC)c6ccccc6)[nH]5)cc(c2-4)OC3)[nH]1)c1ccccc1 [Example 496],0.001 to 0.99 nM,,,0.011 nM,0.001 to 0.999 nM,,0.001 to 0.999 nM,0.001 to 0.999 nM,0.001 to 0.999 nM,0.001 to 0.99 nM,,,,
COC(=O)N[C@H](C(=O)N1CCC[C@H]1c1ncc(-c2cc3c4c(c2)C(=O)c2cc(-c5cnc([C@@H]6CCCN6C(=O)[C@@H](NC(=O)OC)C(C)C)[nH]5)cc(c2-4)OC3)[nH]1)C(C)C [Example 24],0.001 to 0.99 nM,,,,> 44 nM,,> 44 nM,,,,0.001 to 0.999 nM,0.001 to 0.999 nM,0.013 nM,0.001 to 0.99 nM
COC1CN(C(C(=O)N2CCC[C@H]2c2ncc(-c3cc4c5c(c3)OCc3cc(-c6cnc([C@@H]7CCCN7C(=O)C(c7ccccc7)N7CC(OC)C7)[nH]6)cc(c3-5)OC4)[nH]2)c2ccccc2)C1 (some centres unmarked) [Example 444],1 to 4.99 nM,1 to 44 nM,0.001 to 0.999 nM,1.76 nM,1 to 44 nM,0.001 to 0.99 nM,1 to 44 nM,,,,,,,
COC(=O)N[C@H](C(=O)N1CCC[C@H]1c1nc2ccc3c4c(ccc3c2[nH]1)-c1ccc(-c2cnc([C@@H]3CCCN3C(=O)[C@H](NC(=O)OC)c3ccccc3)[nH]2)cc1CO4)C(C)C [Example 412],0.001 to 0.99 nM,0.001 to 0.999 nM,0.001 to 0.999 nM,0.018 nM,0.001 to 0.999 nM,0.001 to 0.99 nM,1 to 44 nM,,,,,,,
COC(=O)N[C@H](C(=O)N1CCCC1c1ncc(-c2ccc3c(c2)COc2cc4c(ccc5nc([C@@H]6C[C@@H]7CCC[C@@H]7N6C(=O)[C@@H](NC(=O)OC)C(C)C)[nH]c54)cc2-3)[nH]1)C(C)C (some centres unmarked) [Example 576],0.001 to 0.99 nM,,,0.014 nM,0.001 to 0.999 nM,,1 to 44 nM,0.001 to 0.999 nM,0.001 to 0.999 nM,0.001 to 0.99 nM,,,,
CN(C)C(=O)N[C@@H](C(=O)N1CCC[C@H]1c1ncc(-c2cc3c4c(c2)OCc2cc(-c5cnc([C@@H]6CCCN6C(=O)[C@H](NC(=O)N(C)C)c6ccccc6)[nH]5)cc(c2-4)OC3)[nH]1)c1ccccc1 [Example 431],0.001 to 0.99 nM,0.001 to 0.999 nM,0.001 to 0.999 nM,0.436 nM,0.001 to 0.999 nM,0.001 to 0.99 nM,0.001 to 0.999 nM,,,,,,,

# Source: patent US10344019B2 (priority 2010, dated 2019)
